Source: publication PMC7570671, “Synthesis and Biological Evaluation of Novel Benodanil-Heterocyclic Carboxamide Hybrids as a Potential Succinate Dehydrogenase Inhibitors” (Molecules, 2020)

Molecular target: T1, succinate dehydrogenase (SDH) from mitochondria of R. solani (Rhizoctonia solani, UniProt A0A0K6FYZ3+A0A0K6G4J6+A0A0K6G6J3)
T1 construct: gene sdhB; native complex II in isolated mitochondria, not purified; with Succinate dehydrogenase [ubiquinone] flavoprotein subunit, mitochondrial
Assay: succinate:ubiquinone/DCPIP reductase inhibition in isolated mitochondria, absorbance at […] nm
Assay type: biochemical

T1 sequence (A0A0K6FYZ3 29-278): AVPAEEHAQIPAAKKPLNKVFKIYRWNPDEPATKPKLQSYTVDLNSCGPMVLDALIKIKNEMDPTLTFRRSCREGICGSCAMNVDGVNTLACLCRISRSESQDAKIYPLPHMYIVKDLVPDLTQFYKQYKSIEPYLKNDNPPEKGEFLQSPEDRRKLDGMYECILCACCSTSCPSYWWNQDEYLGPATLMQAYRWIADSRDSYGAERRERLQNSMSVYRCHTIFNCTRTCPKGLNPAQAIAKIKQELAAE
T1 sequence (A0A0K6G4J6 37-154): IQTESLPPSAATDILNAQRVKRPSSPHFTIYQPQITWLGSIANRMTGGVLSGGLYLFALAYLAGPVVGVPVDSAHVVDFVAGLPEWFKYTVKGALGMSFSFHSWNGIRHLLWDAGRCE
T1 sequence (A0A0K6G6J3 32-176): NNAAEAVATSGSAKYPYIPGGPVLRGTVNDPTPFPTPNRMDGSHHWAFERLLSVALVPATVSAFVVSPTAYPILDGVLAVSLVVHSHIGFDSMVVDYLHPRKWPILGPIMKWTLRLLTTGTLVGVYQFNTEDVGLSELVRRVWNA
T1 sequence (A0A0K6G1V0 48-643 partner): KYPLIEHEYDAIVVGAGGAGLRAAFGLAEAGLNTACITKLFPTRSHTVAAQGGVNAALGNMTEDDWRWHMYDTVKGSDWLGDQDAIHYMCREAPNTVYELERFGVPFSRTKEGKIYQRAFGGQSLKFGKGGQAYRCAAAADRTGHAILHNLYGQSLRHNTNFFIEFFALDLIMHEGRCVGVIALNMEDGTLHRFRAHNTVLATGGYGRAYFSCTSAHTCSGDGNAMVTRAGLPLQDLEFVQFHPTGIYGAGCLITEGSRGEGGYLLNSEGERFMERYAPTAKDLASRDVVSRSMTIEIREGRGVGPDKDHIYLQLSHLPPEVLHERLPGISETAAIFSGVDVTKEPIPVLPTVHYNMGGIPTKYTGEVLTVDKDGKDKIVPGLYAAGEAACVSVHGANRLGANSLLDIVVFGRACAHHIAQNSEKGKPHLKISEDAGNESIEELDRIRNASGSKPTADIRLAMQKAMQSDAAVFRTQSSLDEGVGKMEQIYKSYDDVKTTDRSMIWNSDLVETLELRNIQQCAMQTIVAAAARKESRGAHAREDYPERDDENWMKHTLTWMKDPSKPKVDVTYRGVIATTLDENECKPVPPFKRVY

Structure (SMILES) | IC50 [µM]
Cn1cc(C(=O)Nc2ccccc2C(=O)Nc2cccc(C(F)(F)F)c2)c(C(F)F)n1 [compound 18] | 130
CC(C)c1cccc(NC(=O)c2ccccc2NC(=O)c2cn(C)nc2C(F)F)c1 [compound 17] | 127
O=C(Nc1ccccc1)c1ccccc1I [benodanil] | 192
